Results: article PMC2375353, “Effective treatment of experimental U-87MG human glioblastoma in nude mice with a targeted cytotoxic bombesin analogue, AN-215” (British Journal of Cancer, 2002)
Entries after “also recorded” stand apart in the source; their conditions may differ.

Assays:
[1] = system: H-69 human small-cell lung carcinoma; conditions: ref Kiaris et al, 1999a; cited from earlier work
Excerpt: (§1) Current treatment options for malignant gliomas, including surgery, radiation, and chemotherapy, are of limited effectiveness, and novel therapeutic modalities must be explored. Targeting of antineoplastic agents to cancer cells by linking them to a ligand with high affinity for tumour cells should improve tumour growth inhibition and decrease peripheral toxicity ([Schally and Nagy, 1999]). The presence of high affinity receptors for bombesin (BN)-like peptides on a wide variety of tumours prompted us to employ some of our powerful BN/gastrin releasing peptide (GRP) antagonists as carrier mole ...

[2] = system: PC-3 human androgen-independent prostate cancer; conditions: ref Plonowski et al, 2000; cited from earlier work
Excerpt: as §1

[3] = system: BN receptors on Swiss 3T3 fibroblasts; conditions: ref Nagy et al, 1997; cited from earlier work
Excerpt: as §1

[4] = target: BN/GRP receptor on U-87MG tumour membranes; test: Displacement of 125I-[Tyr4]BN binding (radioreceptor assay) on U-87MG tumour membranes; parameters: species or system human
Method: Binding characteristics of BN receptors on membrane preparations from U-87MG tumours were determined by ligand competition assays using ^125I-labelled [Tyr^4]BN, as reported earlier ([Halmos and Schally, 1997]). […] IC50 value was calculated with a computerized curve fitting programme and is defined as the concentration of AN-215 causing a 50% inhibition of ^125I-[Tyr^4]BN binding.

[5] = system: U-87MG human glioblastoma xenografted into nude mice; test: Experiment 2: growth of s.c. U-87MG xenografts, with BN receptor blockade; format: in vivo, human tumour in male athymic nude mice
Method: Human glioblastoma cell line U-87MG was obtained from American Type Culture Collection (Manassas, VA, USA) and cultured as described ([Pinski et al, 1994]). Male athymic (Ncr nu/nu) nude mice, approximately 6-weeks-old on arrival, were obtained from the National Cancer Institute (Frederick Cancer Research and Development Center, Frederick, MD, USA), and housed in laminar air-flow cabinets under pathogen-free conditions with a 12 h light/12 h dark schedule, and fed autoclaved standard chow and water ad libitum. Xenografts were initiated by s.c. injection of 12×10^6 U-87MG cells into the right flanks of five male nude mice. Tumours resulting after 2 weeks were aseptically dissected, mechanically minced, and 3-mm^3 pieces of tumour tissue were transplanted s.c. with a trocar needle. The take rate was 100%. All experiments were performed in accordance with institutional ethical guidelines of animal care and were essentially in agreement with [UKCCCR guidelines (1998)] for the welfare of animals in experimental neoplasia.
Experiment 2 was started when U-87MG tumours had grown to 70–84 mm^3 in volume. The animals were divided into the following treatment groups: group 1 (10 mice), control, vehicle solution; group 2 (10 mice), analogue AN-215; group 3 (five mice), unconjugated mixture of the cytotoxic radical AN-201 and BN antagonist RC-3095. All compounds were injected i.v. at 150 nmol kg^−1 of BW on days 1, 10, and 17. In addition, one group of tumour-bearing mice received an i.v. injection of 200 μg of BN antagonist RC-3095 15 min before each administration of AN-215 at a dose of 150 nmol kg^−1 of BW on days 1, 10 and 17 as in the case of group 2. The experiment was terminated on day 20 as described above.
Data are expressed as mean±s.e. Differences between mean values were evaluated by two-tailed Student's t-test, P<0.05 being considered significant.

[6] = RC-3095 200 μg/mouse i.v. 15 min before AN-215 150 nmol kg^-1 days 1, 10, 17

In the case of “Gln-Trp-Ala-Val-Gly-His-Leu-ψ(CH2-NH)-Leu-NH2 [AN-215]”, the “Inhibition of H-69 human small-cell lung carcinoma” value [1] is listed as “effectively inhibit”, the “Inhibition of PC-3 human androgen-independent prostate cancer” value [2] is listed as “effectively inhibit” and the “Affinity to BN receptors” value [3] is listed as “high affinity”. The IC50 ([4]; U-87MG tumour membranes, AN-215 10^-6–10^-12 M, mean±s.e., read-out: IC50, inhibition of specific 125I-[Tyr4]BN binding) was 4 ± 0.1 nM, the “Binding affinity to BN/GRP receptor protein” value ([4]; U-87MG tumours) was “high binding affinity” and the Tumour doubling time ([5]; 150 nmol kg^-1 i.v. days 1, 10, 17, 20 days, no pretreatment, control 4.5±0.2) was 6.6 ± 1.0 days. The “Antitumour effect after BN receptor blockade” value ([5]; RC-3095 200 μg i.v. 15 min before AN-215 150 nmol kg^-1) was “could be blocked by pretreatment with an excess of a bombesin antagonist; also recorded: non-significant growth inhibition of U-87MG glioblastomas”, the “Growth inhibition after RC-3095 pretreatment” value [5, 6] was 22% and the “Tumour doubling time after RC-3095 pretreatment” value [5, 6] was 4.7 ± 02 days.
